Measured values from patent publication US9556231B2, “Beta-hairpin peptidomimetics as CXC4 antagonists” (POLYPHOR AG, priority 2011, dated 2017).
Bridge positions count the residues as written; N and C are the ends. Square brackets hold non-standard residues; d marks the D form. Peptide text beside a SMILES is read from it. Lys(iPr) = CC(C)NCCCC[C@H](N)C(=O)O; Orn(iPr) = CC(C)NCCC[C@H](N)C(=O)O

Tests used:
[1] = Cytotoxicity, MTT reduction assay, HELA cells; type: cell-based; conditions: human; MTT, 48 h, up to 50 μM; read-out: Cytotoxicity Hela Cells GI50
Description: (§1) Namalwa cells (CXCR4 natively expressing non-adherent cells, ATCC CRL-1432) were cultured in RPMI1640 plus 10% FBS, and pen/strept. HELA cells were maintained in RPMI1640 plus 10% FBS, pen/strept and 2 mM L-glutamine. Cos-7 cells were grown in DMEM medium with […] glucose supplemented with 10% FCS, pen/strept and 2 mM L-glutamine. All cell lines were grown at 37° C. at 5% CO2. Cell media, media supplements, PBS-buffer, HEPES, antibiotic/antimycotic, pen/strept, non essential amino acid, L-glutamine, β-mercaptoethanol and sera were purchased from Gibco (Pailsey, UK). All fine chemicals were supplied by Merck (Darmstadt, Germany).
(§2) The cytotoxicity of the peptides to HELA cells (Acc57) and COS-7 cells (CRL-1651) was determined using the MTT reduction assay (T. Mossman, J. Immunol. Meth. 1983, 65, 55-63; M. V. Berridge, A. S. Tan, Arch. Biochem. Biophys. 1993, 303, 474-482). Briefly, the method was as follows: 4000 HELA cells/well and 3400 COS-7 cells/well were seeded and grown in 96-well microtiter plates for 24 h at 37° C. at 5% CO2. Thereafter, time zero (Tz) was determined by MTT reduction (see below). The supernatant of the remaining wells was discarded, and fresh medium and compounds in serial dilutions (12.5, 25 and 50 μM, triplicates; 0 μM, blank) were pipetted into the wells. After incubation of the cells for 48 h at 37° C. at 5% CO2 the supernatant was discarded again and 100 μL MTT reagent (0.5 mg/mL in RPMI1640 and DMEM, respectively)/well was added. Following incubation at 37° C. for 2-4 h the media were aspirated and the cells were spiked (100 μL isopropanol/well). The absorbance of the solubilized formazan was measured at 595 nm (OD595peptide). For each concentration averages were calculated from triplicates. The percentage of growth was calculated as follows: (OD595peptide−OD595Tz)/(OD595blank−OD595Tz)×100%. The GI50 (Growth Inhibition) concentrations were calculated for each peptide by using a trend line function for the concentrations (50, 25, 12.5 and 0 μM), the corresponding percentages and the value 50, (=TREND (C50:C0,%50:%0,50).

[2] = Cytotoxicity, MTT reduction assay, COS-7 cells; type: cell-based; conditions: African green monkey; MTT, 48 h, up to 50 μM; read-out: Cytotoxicity Cos-7 Cells GI50
Description: as §1, §2

[3] = Plasma stability, human plasma; type: in vitro ADME; conditions: 37° C., 1440 min, read-out: human pl. cpd left at 1440 min
Description: (§3) The stability of the peptides in human and mouse plasma was determined by applying the following method: 346.5 μL/deep well of freshly thawed human plasma (Basler Blutspende-dienst) and mouse plasma (Harlan Sera-Lab, UK), respectively, were spiked with 3.5 μL/well of compound dissolved in DMSO/H2O (90/10 [v/v], 1 mM, triplicate) and incubated at 37° C. At t=0, 15, 30, 60, 120, 240 and 1440 min aliquots of 50 μL were transferred to filtration plate wells containing 150 μL/well of 2% formic acid in acetonitrile. Following shaking for 2 min the occurred suspensions were filtrated by vacuum. 100 μL of each filtrate were transferred to a propylene microtiter plate and dried under N2. The residual solids were reconstituted by adding 100 μL/well of water/acetonitrile, 95/5 (v/v)+0.2% formic acid and analyzed by LC/MS as follows: Column: Waters, XBridge C18, mobile phases: (A) water+0.1% formic acid and (B) acetonitrile/water, 95/5 (v/v)+0.1% formic acid, gradient: 5%-100% (B) in 1.8 minutes, electrospray ionization, MRM detection (triple quadrupole). The peak areas were determined and triplicate values are averaged. The stability is expressed in percent of the initial value at t=0·(tx/t0×100). By using the TREND function of EXCEL (Microsoft Office 2003) T1/2 were determined.

[4] = Plasma stability, mouse plasma; type: in vitro ADME; conditions: 37° C.
Description: as §3

Plasma protein binding = type: in vitro ADME; conditions: human plasma, ultrafiltration 10 kDa
Description: 495 μL aliquots of human plasma (Basler Blutspendedienst) as well as 495 μL aliquots of PBS were placed in individual deepwells of a polypropylene plate (Greiner) and spiked each with 5 μL of 1 mM solutions of peptides in 90% DMSO. After shaking the plate for 2 min at 600 rpm 150 μL aliquots of the plasma/peptide mixtures were transferred in triplicates to the polypropylene filter plate (10 kDa, Millipore) whereas 150 μL aliquots of the PBS/peptide mixtures were transferred either to the individual wells of the filter plate (filtered controls) or directly into the individual wells of the receiving plate (Greiner) (non-filtered controls). The plate sandwich consisting of filter and receiving plate was incubated for 1 h at 37° C. and subsequently centrifuged at 3220 g for 2 h at 15° C. The filtrates in the receiving plate were analysed by LC/MS as follows: Column: Waters, XBridge C18, mobile phases: (A) water+0.1% formic acid and (B) acetonitrile/water, 95/5 (v/v)+0.1% formic acid, gradient: 5%-100% (B) in 1.8 min, electrospray ionization, MRM detection (triple quadrupole). The peak areas were determined and triplicate values are averaged. The binding is expressed in percent of the filtered and non-filtered controls by 100−(100×T1h/Tctr). Finally the average of these values is calculated.

**Q.** With `CC(C)NCCCC[C@@H]1NC(=O)[C@H](CCC(N)=O)NC(=O)[C@H](Cc2ccc(O)cc2)NC(=O)[C@@H]2CSSC[C@H](NC(=O)[C@H](Cc3ccc(O)cc3)NC(=O)[C@H](Cc3c[nH]cn3)NC(=O)[C@H](Cc3ccc(O)cc3)NC(=O)[C@@H]3CCCN3C(=O)[C@H]3CCCN3C1=O)C(=O)N[C@@H](CO)C(=O)N[C@@H](C)C(=O)N[C@H](Cc1ccc(O)cc1)C(=O)N[C@@H](CCCNC(C)C)C(=O)N[C@@H](CCCNC(=N)N)C(=O)N[C@@H](Cc1ccc(O)cc1)C(=O)N2` [Ex. 5, cyclo(-Tyr^1-His^2-Tyr^3-Cys^4-Ser^5-Ala^6-^DTyr^7-Orn(iPr)^8-Arg^9-Tyr^10-Cys^11-Tyr^12-Gln^13-Lys(iPr)^14-^DPro^15-Pro^16-), disulfide bond between Cys^4 and Cys^11] (cyclo(YHYCSA[dY][Orn(iPr)]RYCYQ[Lys(iPr)][dP]P); disulfide 4-11) as the compound, how does the GI50 at 48 h [1] read?
**A.** > 50 µM

**Q.** And the GI50 at 48 h [2]?
**A.** > 50 µM

**Q.** What about the remaining at 24 h, 10 μM [3] of the same compound?
**A.** 92%

**Q.** And the remaining at 24 h, 10 μM ([4]; 1440 min, read-out: mouse pl. cpd left at 1440 min)?
**A.** 81%

**Q.** And the “mouse pl. T1/2” value ([4]; up to 1440 min)?
**A.** 24 h

**Q.** What about the fraction unbound at 1 h, 10 μM (Plasma protein binding) of the same compound?
**A.** 0.46
